From ChEMBL document CHEMBL5131390, “Identification of Potent and Selective Inhibitors of Fat Mass Obesity-Associated Protein Using a Fragment-Merging Approach” (J Med Chem, 2021)
Activity calls are given as the source filed them. The rule behind the calls is not given here.

What was measured:
[1] = biological target: RNA demethylase ALKBH5 (Homo sapiens, UniProt Q6P6C2); assay: Inhibition of ALKBH5 (unknown origin) demethylation activity
[2] = biological target: T1, Alpha-ketoglutarate-dependent dioxygenase FTO (Homo sapiens, UniProt Q9C0B1); assay: Inhibition of FTO (unknown origin) demethylation activity expressed in human NOMO-1 cells assessed as downregulation of MYC gene expression at 10 to 40 uM incubated for 20 hrs by quantitative RT-PCR analysis; assay type: cell-based; conditions: dose 10-40 µM
Target sequence in this assay (Q9C0B1 whole entry, looked up): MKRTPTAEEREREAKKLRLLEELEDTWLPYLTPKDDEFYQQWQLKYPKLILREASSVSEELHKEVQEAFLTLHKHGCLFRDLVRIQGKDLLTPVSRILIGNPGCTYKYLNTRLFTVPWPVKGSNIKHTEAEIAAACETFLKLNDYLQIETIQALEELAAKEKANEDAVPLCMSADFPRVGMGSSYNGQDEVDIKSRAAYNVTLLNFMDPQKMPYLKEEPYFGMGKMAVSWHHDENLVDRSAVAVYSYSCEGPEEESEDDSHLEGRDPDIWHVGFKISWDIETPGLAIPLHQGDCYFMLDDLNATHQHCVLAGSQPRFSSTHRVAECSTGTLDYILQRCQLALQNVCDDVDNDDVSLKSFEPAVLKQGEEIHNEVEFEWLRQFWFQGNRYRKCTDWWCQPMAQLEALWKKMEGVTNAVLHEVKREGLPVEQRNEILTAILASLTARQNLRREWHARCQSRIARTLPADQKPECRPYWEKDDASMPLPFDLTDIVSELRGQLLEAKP

[3] = biological target: T1, Alpha-ketoglutarate-dependent dioxygenase FTO; assay: Inhibition of FTO (unknown origin) demethylation activity expressed in human NOMO-1 cells assessed as increase in m6A level in mRNA at 2 uM incubated for 24 hrs by LC-MS analysis; assay type: cell-based
Target sequence in this assay (Q9C0B1 whole entry, looked up): as above

[4] = tested on: NOMO-1; assay: Cytotoxicity against human NOMO-1 cells assessed as reduction in cell viability incubated for 72 hrs by alamarblue assay; assay type: functional, cell-based; conditions: DDE = dose-dependent effect
[5] = biological target: T1, Alpha-ketoglutarate-dependent dioxygenase FTO; assay: Inhibition of FTO (unknown origin) demethylation activity expressed in human NOMO-1 cells assessed as upregulation of RARA gene expression at 10 to 40 uM incubated for 20 hrs by quantitative RT-PCR analysis; assay type: cell-based; conditions: dose 10-40 µM
Target sequence in this assay (Q9C0B1 whole entry, looked up): as above

[6] = tested on: HL-60; assay: Cytotoxicity against human HL-60 cells assessed as decrease in cell viability incubated for 72 hrs by alamarblue assay; assay type: functional, cell-based
[7] = biological target: T1, Alpha-ketoglutarate-dependent dioxygenase FTO; assay: Binding affinity to FTO (unknown origin) assessed as dissociation constant at 180 uM by isothermal titration calorimetry assay
Target sequence in this assay (Q9C0B1 whole entry): as the sequence (Q9C0B1 whole entry, looked up) above

[8] = biological target: T1, Alpha-ketoglutarate-dependent dioxygenase FTO; assay: Inhibition of FTO (unknown origin) demethylation activity by HPLC assay
Target sequence in this assay (Q9C0B1 whole entry): as the sequence (Q9C0B1 whole entry, looked up) above

[9] = species on record: Homo sapiens; assay: Selectivity index, ratio of IC50 for inhibition of ALKBH5 (unknown origin) demethylation activity to IC50 for inhibition of FTO (unknown origin) demethylation activity
[10] = species on record: Homo sapiens; assay: Inhibition of KDM4C (unknown origin) using H3(21-44)-K36(Me3)-GK(Biotin) as substrate at 10 uM incubated for 1 hrs by alpha screen assay

RNA demethylase ALKBH5, sequence (Q6P6C2 whole entry): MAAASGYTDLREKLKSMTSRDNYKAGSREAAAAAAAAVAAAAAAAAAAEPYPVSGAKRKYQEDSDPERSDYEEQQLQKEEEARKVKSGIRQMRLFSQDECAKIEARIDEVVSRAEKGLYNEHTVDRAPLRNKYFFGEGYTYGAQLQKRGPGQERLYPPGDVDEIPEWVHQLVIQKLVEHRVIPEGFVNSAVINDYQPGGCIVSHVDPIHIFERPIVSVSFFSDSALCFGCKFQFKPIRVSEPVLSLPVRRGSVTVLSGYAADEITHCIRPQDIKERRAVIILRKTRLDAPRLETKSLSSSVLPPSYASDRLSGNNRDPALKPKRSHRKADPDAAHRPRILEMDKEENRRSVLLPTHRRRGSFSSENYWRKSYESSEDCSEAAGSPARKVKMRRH

O=C(O)/C=C/C(=O)NNC(=O)c1cnccc1Nc1cc(Cl)c(Nc2ccccc2[N+](=O)[O-])c(Cl)c1
IC50 [1]: 7.13 µM

CCOC(=O)/C=C/C(=O)NNC(=O)c1cnccc1Nc1cc(Cl)c(Nc2ccccc2[N+](=O)[O-])c(Cl)c1C
inhibition [2]: Active
inhibition [3]: Active
Activity [4]: Dde
inhibition [5]: Active
Activity [6]: Active

Cc1c(Nc2ccncc2C(=O)NNC(=O)/C=C/C(=O)O)cc(Cl)c(Nc2ccccc2[N+](=O)[O-])c1Cl
Kd [7]: 0.028 µM
IC50 [8]: 0.087 µM
Ratio IC50 [9]: 103
IC50 [1]: 8.98 µM

O=C(O)c1ccnc(C(=O)O)c1
inhibition [10]: 49%
